Assay results taken from ChEMBL document CHEMBL1201862, “PubChem BioAssay data set” (2004).
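Where inhibition never reached the appropriate level, the endpoint shown equals the highest concentration tested. Otherwise, values were interpolated linearly from a five-concentration, 48-hour dose response in 96-well plates. Here, GI50 denotes the concentration required for 50% inhibition of growth.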 Active and inactive are the calls of the source. No stated cut-off is given here; in the data, active = GI50 up to about 1.1 µM and inactive = higher.

Legend:
Test in all cases: NCI tumour cell line growth inhibition, 48 h
A498 = tested on: A498
A549 = tested on: A549
BT-549 = tested on: BT-549
CCRF-CEM = tested on: CCRF-CEM
COLO 205 = tested on: COLO 205
EKVX = tested on: EKVX
HL-60 = tested on: HL-60
K562 = tested on: K562
KM12 = tested on: KM12
MCF7 = tested on: MCF7
MOLT-4 = tested on: MOLT-4
NCI-H460 = tested on: NCI-H460
RPMI-8226 = tested on: RPMI-8226
SN12C = tested on: SN12C
SNB-75 = tested on: SNB-75
SR = tested on: SR
U-251 = tested on: U-251
HT-29 = tested on: HT-29
SK-OV-3 = tested on: SK-OV-3

| Compound | GI50 (A498) | GI50 (A549) | GI50 (BT-549) | GI50 (CCRF-CEM) | GI50 (COLO 205) | GI50 (EKVX) | GI50 (HL-60) | GI50 (K562) | GI50 (KM12) | GI50 (MCF7) | GI50 (MOLT-4) | GI50 (NCI-H460) | GI50 (RPMI-8226) | GI50 (SN12C) | GI50 (SNB-75) | GI50 (SR) | GI50 (U-251) | GI50 (HT-29) | GI50 (SK-OV-3) |
| --- | --- | --- | --- | --- | --- | --- | --- | --- | --- | --- | --- | --- | --- | --- | --- | --- | --- | --- | --- |
| [O-][Cl+3]([O-])([O-])[O-].[O-][Cl+3]([O-])([O-])[O-].c1ccn2c(N3CCOCC3)[n+]3c4ccccc4[n+]4c(N5CCOCC5)n5ccccc5c4c3c2c1 | > 100 µM (inactive) | > 100 µM (inactive) | > 100 µM (inactive) | > 100 µM (inactive) | 49.9 µM (inactive) | > 100 µM (inactive) | 71.6 µM (inactive) | > 100 µM (inactive) | 52.1 µM (inactive) | 56.1 µM (inactive) | > 100 µM (inactive) | > 100 µM (inactive) | > 100 µM (inactive) | 17.7 µM (inactive) | 28.5 µM (inactive) | 41.3 µM (inactive) | 50.6 µM (inactive) | – | – |
| COc1ccc(/C=c2/[nH]c(=O)/c(=C\c3ccc(OCc4ccccc4)cn3)[nH]c2=O)cc1 | 33 µM (inactive) | 50.2 µM (inactive) | 45.3 µM (inactive) | 13.9 µM (inactive) | 32.2 µM (inactive) | > 100 µM (inactive) | 6.93 µM (inactive) | 31.1 µM (inactive) | 47.1 µM (inactive) | 46 µM (inactive) | 43.6 µM (inactive) | 63.8 µM (inactive) | – | > 100 µM (inactive) | 19.3 µM (inactive) | 20.8 µM (inactive) | 40.6 µM (inactive) | 50.5 µM (inactive) | 55 µM (inactive) |
| ClCCN(CCCl)c1ccc(CNCCCNCc2ccc(N(CCCl)CCCl)cc2)cc1 | 7.24 µM (inactive) | 3.2 µM (inactive) | 3.38 µM (inactive) | 2.78 µM (inactive) | 1.62 µM (inactive) | 2.69 µM (inactive) | 1.03 µM (active) | 1.93 µM (inactive) | 1.99 µM (inactive) | 1.21 µM (inactive) | – | 0.402 µM (active) | 3.52 µM (inactive) | 1.63 µM (inactive) | – | 0.11 µM (active) | 1.33 µM (inactive) | 1.87 µM (inactive) | 2.61 µM (inactive) |
| CCCC(O)c1cn(C(NC(=O)c2ccccc2)P(=O)(OCC)OCC)nn1 (configuration not stated) | > 100 µM (inactive) | > 100 µM (inactive) | > 100 µM (inactive) | > 100 µM (inactive) | > 100 µM (inactive) | > 100 µM (inactive) | > 100 µM (inactive) | > 100 µM (inactive) | > 100 µM (inactive) | > 100 µM (inactive) | > 100 µM (inactive) | > 100 µM (inactive) | > 100 µM (inactive) | > 100 µM (inactive) | > 100 µM (inactive) | > 100 µM (inactive) | > 100 µM (inactive) | > 100 µM (inactive) | – |
| Cc1cn([C@H]2C[C@@H](N3C(=O)c4ccccc4C3=O)[C@@H](CO[Si](C)(C)C(C)(C)C)O2)c(=O)[nH]c1=O | > 100 µM (inactive) | 85.5 µM (inactive) | > 100 µM (inactive) | 36 µM (inactive) | > 100 µM (inactive) | 75.2 µM (inactive) | – | 52.5 µM (inactive) | 91.6 µM (inactive) | 46 µM (inactive) | 36.9 µM (inactive) | > 100 µM (inactive) | > 100 µM (inactive) | > 100 µM (inactive) | 24 µM (inactive) | 36.7 µM (inactive) | 34.9 µM (inactive) | 20.4 µM (inactive) | 30.1 µM (inactive) |
| COC(=O)c1sc2c(c1C(=O)OC)/C(=N/C(C)(C)C)S/C2=N\C(C)(C)C | 17.8 µM (inactive) | 17.4 µM (inactive) | 19 µM (inactive) | 15.6 µM (inactive) | 17.4 µM (inactive) | 16.3 µM (inactive) | 13.6 µM (inactive) | 18.5 µM (inactive) | 16.3 µM (inactive) | 17.7 µM (inactive) | 15.1 µM (inactive) | 18.5 µM (inactive) | 15.2 µM (inactive) | 16.6 µM (inactive) | – | 13.4 µM (inactive) | 17.1 µM (inactive) | 16.4 µM (inactive) | 25.4 µM (inactive) |
| CC(O)(CCCCCl)c1nc2ccccc2s1 (configuration not stated) | > 100 µM (inactive) | > 100 µM (inactive) | 67.9 µM (inactive) | > 100 µM (inactive) | > 100 µM (inactive) | 52.4 µM (inactive) | 60.4 µM (inactive) | 89.9 µM (inactive) | > 100 µM (inactive) | 71.8 µM (inactive) | 50.7 µM (inactive) | – | 97.5 µM (inactive) | > 100 µM (inactive) | > 100 µM (inactive) | 53 µM (inactive) | 85.5 µM (inactive) | 65.9 µM (inactive) | > 100 µM (inactive) |
| C[C@@H]1CC[C@@H]2[C@@H](C1)O[C@@H]([C@@H](C)OCc1ccccc1)SC2(C)C | 17.3 µM (inactive) | 29.9 µM (inactive) | 22.1 µM (inactive) | 16.6 µM (inactive) | 17.6 µM (inactive) | 31.8 µM (inactive) | – | 18.1 µM (inactive) | 18.7 µM (inactive) | 18.7 µM (inactive) | 16.1 µM (inactive) | 20.9 µM (inactive) | 16.5 µM (inactive) | 17.2 µM (inactive) | 16.2 µM (inactive) | 17.5 µM (inactive) | 17.5 µM (inactive) | 18.8 µM (inactive) | 24.9 µM (inactive) |
